Test results published in patent publication US20200113901A1, “METHODS OF USING EHMT2 INHIBITORS” (Epizyme, Inc., priority 2017, published 2020).

Columns and labels:
[1] = system: H3K9me2 (H3 di methyl K9); assay: H3K9me2 western blot in Prader Willi Syndrome patient fibroblast cell lines; format: cell-based, human; conditions: PWS patient fibroblast cell lines GM21889 and GM21890; 0.25 μM, 1 μM, 5 μM; 7 days; western blot densitometry; FIG. 1
Procedure: (§1) Fibroblast cell lines were obtained from Coriell Institute (GM21889 and GM21890). Cells were plated in 6 well plates at 0.13 or 0.26 e6 cells per well. Cells were treated for 7 days with 0, 0.25 μM, 1 μM, or 5 μM Compound No. 205 or 4 μM UNC0638 (positive control) with reseeding into 100 mm dishes and retreatment at day 4. On day 7 cells were lysed in 1X RIPA buffer (Millipore, #20-188) with 0.1% SDS and Protease Inhibitor Cocktail tablet (Roche, #04693159001), and sonicated on ice before being spun at 4° C. Clarified supernatant was assayed for protein concentration by BCA (Pierce, #23225). 25 μg of lysate was used for western blots. Antibodies used for Western blotting include H3 (4499; Cell Signaling) at 1:1000, H3K9me2 (ab1220; Abcam) at 1:1000, SNRPN (PA 1775; BosterBio) at 1:1000, and β-actin (ab8224; Abcam) at 1:2500. Imaging was performed using a Licor Odyssey, and changes in the target band were quantified by densitometry. Ratios between H3K9me2 and H3 were calculated and compound treated samples were normalized to controls (DMSO). Increases in SNRPN protein expression was observed upon increasing concentrations of Compound No. 205. See, e.g., FIGS. 1 and 2.

SNRPN protein = SNRPN protein induction (western blot) in Prader Willi Syndrome patient fibroblast cell lines; format: cell-based, human; conditions: PWS patient fibroblast cell lines GM21889 and GM21890, increasing concentrations 0.25 μM, 1 μM, 5 μM, 7 days, FIG. 2
Procedure: as §1

CNc1cc(C)nc(Nc2ccc(OC)c(OCCCN3CCCC3)c2)n1 [Compound No. 205]
H3 di methyl K9 (ratio H3K9me2 to H3, normalized to DMSO control) [1]: decrease | SNRPN protein expression (SNRPN protein): Increases
